Test results reported in US9045505B2, “Nitric oxide donors” (University of Otago, priority 2006, dated 2015).

What was measured:
liver mitochondria = test: Metabolism of MitoSNAP by mitochondria (RP-HPLC of supernatant); assay type: in vitro ADME, rat
Protocol: FIG. 9 is a series of traces and graphs showing membrane potential-dependent MitoSNAP mitochondrial uptake and NO^• generation. (a-d) Liver mitochondria were incubated in KCl medium supplemented with rotenone in a stirred 3 ml chamber and electrodes were used to measure the concentrations of O2 and NO^• simultaneously. Where indicated succinate (10 mM), OxyHb (5 μM) or FCCP (500 nM) were added. For (a) and (b) 2 mg mitochondrial protein/ml and 20 μM MitoSNAP (a) or SNAP (b) were used. For (c) and (d) 0.5 mg mitochondrial protein/ml and 5 μM MitoSNAP were used. There was no effect of 5 μM MitoNAP on respiration or NO^• production. All traces are from typical experiments repeated at least twice. […] Mitochondria were then pelleted by centrifugation (10,000×g) then aliquots of the supernatant (700 μl) were mixed with 700 μl 0.1% TFA and analyzed by RP-HPLC. The amount of MitoSNAP and MitoNAP were calculated as the percentage of their peak areas relative to the sum of both peak areas.
MitoSNAP, MitoNAP and their derivatives were separated by reverse phase HPLC (RP-HPLC) on a C18 column (Jupiter 300 Å, Phenomenex) with a Widepore C18 guard column (Phenomenex), using a Gilson 321 pump. […] Peaks were detected at 220 nm using a Gilson UV/VIS 151 spectrophotometer. […]

HeLa cells = test: Cell hypoxia experiment, extracellular pO2 by fluorescence quenching oximetry; assay type: cell-based; conditions: 1% O2, 30 min incubation, compared to untreated controls
Protocol: FIG. 10 is a series of traces and graphs showing the effect of MitoSNAP on respiration in cells. (a-d) Jurkat cells (55×10^6 cells) were incubated in PBS supplemented with 25 mM Hepes pH 7.2 (NaOH), 1 mM sodium pyruvate, 10 μM neocuproine and 100 μM DTPA in the stirred 2.5 ml chamber of an oxygen electrode at 37° C. with 5 μM MitoSNAP (a), MitoNAP (b), SNAP (c) or MitoSNAP and FCCP (500 nM) (d). Where indicated 5 μM OxyHb was added. Traces show typical experiments that were repeated at least three times. Sections of the 02 electrode trace where OxyHb was added for (a) and (b) have been expanded 4-fold in the vertical dimension to facilitate inspection. […] Cellular pO2 values, measured by fluorescence quenching oximetry and expressed as mean±sd, are shown. […]
HeLa cells were seeded and grown to 100% confluence with 15 ml medium/dish on 165 cm^2 dishes. […] Extracellular pO2 measurements were taken by fluorescence quenching oximetry (Oxylite-2000; Oxford Optronix). […]
To evaluate the selective uptake of MitoSNAP by mitochondria within cells, the effect of MitoSNAP on respiration by Jurkat cells, a T lymphocyte cell line that grows in suspension, was measured using an O2 electrode (FIG. 10). […] Then the effects of a further 30 min incubation with MitoSNAP, MitoNAP or the mitochondrial inhibitor myxathiazol on the steady-state extracellular pO2 was assessed by fluorescence quenching oximetry (FIG. 10e).

For CC(=O)NC(C(=O)NCCCCC[P+](c1ccccc1)(c1ccccc1)c1ccccc1)C(C)(C)SN=O.CS(=O)(=O)[O-] (stereo not drawn) [MitoSNAP, [5-(2-acetylamino-3-methyl-3-nitrosothio-butyrylamino)-penty1]-triphenylphosphonium methanesulfonate], the “conversion of MitoSNAP to MitoNAP” value (liver mitochondria; energized mitochondria) was “rapidly consumed”, the “conversion of MitoSNAP to MitoNAP” value (liver mitochondria; unenergized mitochondria (FCCP), compared with energized) was “slower” and the “effect on steady-state extracellular pO2 during hypoxia” value (HeLa cells) was “increased extracellular O2”.
